Assay results as given in PubChem BioAssay (NCI).
Values joined by “and” are separate entries in the source; they are usually repeats but may differ in a detail not shown here. Equal entries are not always repeated.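 Method: 48-hour compound exposure of cells in 96-well plates, five concentrations, linear interpolation of endpoints. GI50 marks 50% less growth. Definition used: TGI = concentration required for complete inhibition of growth.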

Tests used:
Experiment in all cases: inhibition of tumour cell growth, NCI panel, 48 h
ACHN renal = tested on: ACHN renal
HS 578T breast = tested on: HS 578T breast
IGROV1 ovarian = tested on: IGROV1 ovarian
RPMI-8226 leukemia = tested on: RPMI-8226 leukemia
OVCAR-3 ovarian = tested on: OVCAR-3 ovarian
NCI/ADR-RES ovarian = tested on: NCI/ADR-RES ovarian
HCT-116 colon = tested on: HCT-116 colon
MOLT-4 leukemia = tested on: MOLT-4 leukemia
MDA-MB-231 breast = tested on: MDA-MB-231 breast
SK-MEL-5 melanoma = tested on: SK-MEL-5 melanoma
UO-31 renal = tested on: UO-31 renal
OVCAR-4 ovarian = tested on: OVCAR-4 ovarian
SF-295 CNS = tested on: SF-295 CNS
T-47D breast = tested on: T-47D breast
UACC-62 melanoma = tested on: UACC-62 melanoma
UACC-257 melanoma = tested on: UACC-257 melanoma
SW-620 colon = tested on: SW-620 colon
MDA-MB-435 = tested on: MDA-MB-435
SF-539 CNS = tested on: SF-539 CNS
SK-MEL-2 melanoma = tested on: SK-MEL-2 melanoma
A549 NSCLC = tested on: A549 NSCLC
M14 melanoma = tested on: M14 melanoma
MCF7 breast = tested on: MCF7 breast
COLO 205 colon = tested on: COLO 205 colon
KM12 colon = tested on: KM12 colon
SR leukemia = tested on: SR leukemia
HOP-62 NSCLC = tested on: HOP-62 NSCLC
NCI-H522 lung = tested on: NCI-H522 lung
SNB-75 CNS = tested on: SNB-75 CNS

Question: Which GI50 (ACHN renal) does the source give for `Cc1ccc(NC(=O)c2ccc(CN3CC[C@H](N(C)C)C3)c(C(F)(F)F)c2)cc1Nc1nccc(-c2cncnc2)n1` here?
Answer: The GI50 was 4.04 µM and 8.38 µM.

Question: And the TGI (ACHN renal)?
Answer: Its TGI is 14.8 µM and > 10 µM.

Question: And the GI50 (HS 578T breast)?
Answer: Its GI50 is 7.62 µM and 2.23 µM.

Question: What about the TGI (HS 578T breast) of the same compound?
Answer: Its TGI is 35.6 µM and > 10 µM.

Question: What about the GI50 (IGROV1 ovarian) of the same compound?
Answer: The GI50 was 7.21 µM and 5.14 µM.

Question: What about the TGI (IGROV1 ovarian) of the same compound?
Answer: The TGI was 24.8 µM and > 10 µM.

Question: What about the GI50 (RPMI-8226 leukemia) of the same compound?
Answer: The GI50 was 5.08 µM and 4.4 µM.

Question: And the TGI (RPMI-8226 leukemia)?
Answer: Its TGI is 24 µM and > 10 µM.

Question: And the GI50 (OVCAR-3 ovarian)?
Answer: The GI50 was 6.12 µM and 8.64 µM.

Question: And the TGI (OVCAR-3 ovarian)?
Answer: Its TGI is 20.5 µM and > 10 µM.

Question: And the GI50 (NCI/ADR-RES ovarian)?
Answer: Its GI50 is 12.5 µM and > 10 µM.

Question: And the TGI (NCI/ADR-RES ovarian)?
Answer: Its TGI is 45.1 µM and > 10 µM.

Question: What about the GI50 (HCT-116 colon) of the same compound?
Answer: The GI50 was 1.62 µM and 2.61 µM.

Question: What about the TGI (HCT-116 colon) of the same compound?
Answer: The TGI was 9.9 µM and > 10 µM.

Question: And the GI50 (MOLT-4 leukemia)?
Answer: The GI50 was 5.23 µM and 3.69 µM.

Question: What about the TGI (MOLT-4 leukemia) of the same compound?
Answer: The TGI was 21.4 µM and > 10 µM.

Question: What about the GI50 (MDA-MB-231 breast) of the same compound?
Answer: The GI50 was 1.42 µM and 1.98 µM.

Question: And the TGI (MDA-MB-231 breast)?
Answer: The TGI was 7.82 µM and > 10 µM.

Question: What about the GI50 (SK-MEL-5 melanoma) of the same compound?
Answer: The GI50 was 3.79 µM and 4.05 µM.

Question: What about the TGI (SK-MEL-5 melanoma) of the same compound?
Answer: Its TGI is 9.07 µM and > 10 µM.

Question: What about the GI50 (UO-31 renal) of the same compound?
Answer: Its GI50 is 6.69 µM and 5.17 µM.

Question: What about the TGI (UO-31 renal) of the same compound?
Answer: Its TGI is 21.9 µM and > 10 µM.

Question: And the GI50 (OVCAR-4 ovarian)?
Answer: Its GI50 is 10.9 µM and > 10 µM.

Question: And the TGI (OVCAR-4 ovarian)?
Answer: The TGI was 30.1 µM and > 10 µM.

Question: What about the GI50 (SF-295 CNS) of the same compound?
Answer: Its GI50 is 4.85 µM and > 10 µM.

Question: What about the TGI (SF-295 CNS) of the same compound?
Answer: Its TGI is 12.5 µM and > 10 µM.

Question: What about the GI50 (T-47D breast) of the same compound?
Answer: The GI50 was 5.16 µM and > 10 µM.

Question: And the TGI (T-47D breast)?
Answer: Its TGI is 12.2 µM and > 10 µM.

Question: What about the GI50 (UACC-62 melanoma) of the same compound?
Answer: The GI50 was 1.05 µM and 0.387 µM.

Question: What about the TGI (UACC-62 melanoma) of the same compound?
Answer: The TGI was 15.7 µM and > 10 µM.

Question: What about the GI50 (UACC-257 melanoma) of the same compound?
Answer: Its GI50 is 1.44 µM and 1.14 µM.

Question: And the TGI (UACC-257 melanoma)?
Answer: Its TGI is 6.74 µM and 3.53 µM.

Question: And the GI50 (SW-620 colon)?
Answer: Its GI50 is 6.15 µM and > 10 µM.

Question: What about the TGI (SW-620 colon) of the same compound?
Answer: Its TGI is 22.1 µM and > 10 µM.

Question: What about the GI50 (MDA-MB-435) of the same compound?
Answer: The GI50 was 1.73 µM and 3.1 µM.

Question: And the TGI (MDA-MB-435)?
Answer: Its TGI is 15.6 µM and > 10 µM.

Question: And the GI50 (SF-539 CNS)?
Answer: The GI50 was 4.5 µM and 6.26 µM.

Question: And the TGI (SF-539 CNS)?
Answer: The TGI was 9.34 µM and > 10 µM.

Question: And the GI50 (SK-MEL-2 melanoma)?
Answer: The GI50 was 2.64 µM and 2.5 µM.

Question: What about the TGI (SK-MEL-2 melanoma) of the same compound?
Answer: Its TGI is 13.3 µM and > 10 µM.

Question: What about the GI50 (A549 NSCLC) of the same compound?
Answer: Its GI50 is 11.3 µM and > 10 µM.

Question: And the TGI (A549 NSCLC)?
Answer: The TGI was 28.5 µM and > 10 µM.

Question: And the GI50 (M14 melanoma)?
Answer: Its GI50 is 0.425 µM and 0.668 µM.

Question: What about the TGI (M14 melanoma) of the same compound?
Answer: The TGI was 4.9 µM and > 10 µM.

Question: What about the GI50 (MCF7 breast) of the same compound?
Answer: The GI50 was 6.63 µM and > 10 µM.

Question: And the TGI (MCF7 breast)?
Answer: Its TGI is 24.6 µM and > 10 µM.

Question: What about the GI50 (COLO 205 colon) of the same compound?
Answer: Its GI50 is 0.331 µM and 0.423 µM.

Question: What about the TGI (COLO 205 colon) of the same compound?
Answer: Its TGI is 6.65 µM and > 10 µM.

Question: And the GI50 (KM12 colon)?
Answer: The GI50 was 6.65 µM and > 10 µM.

Question: What about the TGI (KM12 colon) of the same compound?
Answer: The TGI was 23.5 µM and > 10 µM.

Question: What about the GI50 (SR leukemia) of the same compound?
Answer: The GI50 was 2.79 µM and 1.99 µM.

Question: And the TGI (SR leukemia)?
Answer: Its TGI is > 24.4 µM and 5.04 µM.

Question: And the GI50 (HOP-62 NSCLC)?
Answer: Its GI50 is 9.83 µM and 9.62 µM.

Question: And the TGI (HOP-62 NSCLC)?
Answer: Its TGI is 24.5 µM and > 10 µM.

Question: What about the GI50 (NCI-H522 lung) of the same compound?
Answer: Its GI50 is 4.5 µM and > 10 µM.

Question: And the TGI (NCI-H522 lung)?
Answer: The TGI was 13.1 µM and > 10 µM.

Question: And the GI50 (SNB-75 CNS)?
Answer: Its GI50 is 10.3 µM and > 10 µM.
